This note sets out measurements from patent US20240390329A1, “APPLICATION OF CHANNEL BLOCKER IN PREPARATION OF DRUGS FOR TREATING AND/OR PREVENTING LIVER FIBROSIS” (Affiliated Hospital of Zunyi Medical University, priority 2023, published 2024).

Series [1] is described as follows: Drug group: healthy mice given PHT sodium alone, compared with normal control group. It counts as in vivo, male C57 mice.
Series [2] relates to hepatic stellate cells (HSCs). The experiment in a line: CCK-8 detection of the effect of PHT sodium on proliferation of HSCs. Type of series: cell-based. To be noted: CCK-8, 48 hours; read-out: IC50 value on HSC proliferation.
Description: 1) Cell recoveries are performed as follows. After irradiation with an ultraviolet lamp for 30 minutes on a super clean bench, white light and circulating air flow are turned on, a centrifuge tube is taken, and 3 mL of culture medium is added into the centrifuge tube. The frozen cells are quickly taken out of a refrigerator at −80° C. and put into a constant-temperature water bath at 37° C. to be thawed, and then the cells are sucked out from the super clean bench and put into the prepared centrifuge tube. After sealing, the cells are centrifuged in a centrifuge for 5 minutes (at a speed of 1000 rpm), then a culture flask is prepared, the name and date of the cells are marked, the supernatant is poured out after centrifugation, and a new culture medium is added to blow and mix. Finally, the mixed cells are added to the marked culture flask, and the flask is sprayed with 75% alcohol and placed in a constant temperature incubator for culture. 2) Cell passage is performed as follows. […] The cells in good condition are digested, and then the cells are counted. […] After 1-4 hours of incubation in the incubator, the absorbance is detected by a microplate reader.
The next series deals with HSCs induced by TGF-β1. The experiment in a line: CCK-8 detection of the effect of PHT sodium on TGF-β1 induced proliferation of HSCs. It counts as cell-based. To be noted: PHT sodium 200 μM, p<0.05.
Series [3] relates to HSCs (α-SMA, LC3, p62 expression). The experiment in a line: Western blotting of α-SMA, LC3 and p62 in HSCs stimulated with TGF-β1. It counts as cell-based. To be noted: TGF-β1+PHT vs TGF-β1 alone; PHT sodium 200 μM; p<0.05. As to the method:
Extraction of cell protein: the cells that need to be extracted protein are removed from the incubator, rinsed twice with the prepared PBS solution, placed on a clean filter paper, and the remaining PBS is dried. Then, a certain amount of radio immunoprecipitation assay (RIPA) protein lysis solution is added according to the growth of the cells, and the protein is lysed for about 30 minutes. Then, the lysed protein stock solution is scraped with a scraper, placed in prepared EP tubes, and then placed in a high-speed centrifuge and centrifuged at 12,000 rpm at 4° C. for 30 minutes. After centrifugation is completed, the supernatant is taken for subsequent protein quantification.

Series [4] has as its system carbon tetrachloride (CCl4) induced liver fibrosis. In words: Mouse model of liver fibrosis induced by CCl4, treatment group given PHT sodium.
The mark [5] stands for this setting: drug group vs normal control group.
The mark [6] stands for this setting: treatment group vs model group, p<0.05.

Entries after “also recorded” stand apart in the source; their conditions may differ.

Description for HSCs induced by TGF-β1: The cells in good condition are digested, and then the cells are counted. After counting the concentration ratio, the corresponding volume of cell suspension and culture medium are taken to make the cell concentration required for the experiment. The cells are fully mixed and added to a 96-well plate. According to the experimental requirements, different interventions are given to the cells. After 48 hours, 10% CCK8 solution (the ratio between culture medium and CCK8 is 10:1) is added to each well. After 1-4 hours of incubation in the incubator, the absorbance is detected by a microplate reader.
The effect of TGF-β1 on the proliferation of HSCs is detected by the CCK8 method.

For the compound `O=C1NC(=O)C(c2ccccc2)(c2ccccc2)N1` [PHT sodium, phenytoin sodium], the “liver lobules (HE, Masson's trichrome, picric-Sirius red staining)” value in series [1] (drug group) is “intact and structurally normal”. Besides, in series [1] (setting [5]), the “appearance of the liver” value is recorded as “no significant difference” and the “transaminase (ALT, AST) in serum” value was “no significant difference”. Moreover, the “positive expression of α-SMA in liver sections (immunohistochemistry)” value in series [1] (drug group, at edges of hepatic portal vein and central vein) is listed as “only a small amount of positive expression”. In addition, in series [1] (drug group, food and water intake normal), the “general state of mice (fur, activity)” value is “smooth fur and active activity”. In addition, the IC50 in series [2] was 234 µM. The “proliferation of HSCs promoted by TGF-β1” value in the series with HSCs induced by TGF-β1 is reported as “inhibited”. For the same compound, in series [3], the “expression of autophagy substrate protein p62 in HSCs” value was “significantly increased”, the “expression of autophagy-related protein LC3 in HSCs” value is given as “significantly decreased” and the “expression of α-SMA in HSCs” value was “significantly lower; also recorded: decreased”. In addition, in series [4] (staining of liver sections), the “collagen content in the liver of mice” value is “reduce”. For the same compound, the “liver texture (appearance of the liver, naked eye)” value in series [4] (treatment group vs model group) is on record as “softer than that of the model group”. For the same compound, in series [4] (treatment group vs model group, PHT sodium 1 mM, 10 mL/kg i.p. once a day), the “activity of the mice” value is listed as “significantly increased”. The “degree of liver fibrosis (HE, Masson's trichrome, picric-Sirius red staining)” value in series [4] (treatment group vs model group, liver sections) was “reduced”. For the same compound, in series [4] (setting [6]), the “expression of LC3 in liver tissue (Western blotting)” value is “decreased”, the “expression of p62 in liver tissue (Western blotting)” value is “increased”, the “expression of α-SMA in liver tissue (Western blotting)” value is recorded as “decreased” and the “positive expression of α-SMA in liver sections (immunohistochemistry)” value is recorded as “decreased compared with the model group”. Also, in series [4] (setting [6]), the “transaminase (ALT, AST) in serum” value is on record as “lower than that in the model group”.
